Laboratory results reported in patent US9974759B2, “Beta 2 adrenoceptor antagonists for treating orthostatic hypotension” (Indiana University Research & Technology Corporation, priority 2013, dated 2018).
Entries after “also recorded” stand apart in the source; their conditions may differ.

Columns and labels:
[1] = system: rat model of orthostatic hypotension; details: no definite beneficial effect shown; cited from earlier work
humans = details: doses up to 80 mg orally, no continuous BP monitoring; cited from earlier work
[2] = system: left thoracic vagal nerve; assay: Ambulatory recording of vagal nerve activity (VNA); details: carvedilol 12 mg twice daily for a week or ICI infusion 7 days; immediately before drug 192.96
Description: (§1) Eight mongrel dogs (4 male, weighing 20-30 kg) were used in this Example. Left thoracotomy was performed through the first intercostal space for the implantation of a D70-CCTP radiotransmitter manufactured by the Data Sciences International (DSI, St Paul, Minn.). The first pair of bipolar electrodes was inserted beneath the nerve sheath of the left stellate ganglion. A second pair of bipolar leads was attached to the left thoracic vagal nerve at a level of 4 to 5 cm above the aortic arch. The third lead, a catheter with a pressure sensor, was inserted directly into the subclavian artery for blood pressure (BP) recording. The transmitter and ground wires were inserted into a subcutaneous pocket.
(§2) After 2 weeks of recovery, the radiotransmitter was turned on to record nerve signals and BP at baseline. The pre-implantation BP was calibrated against the ambient pressure in the vivarium. […]
(§3) The nerve activities were integrated minute-by-minute. […] The mean BP was also analyzed minute-by-minute during the same period. […] Pearson correlation coefficients between these two nerve activities were calculated. […]
(§4) To determine the relationship between BP, heart rate (HR) and ANS activities, 1-minute and 4-hour averages for each dog were calculated on each day of data collection starting at midnight. Pearson correlation coefficients between SGNA and VNA were also calculated within each 4-hour interval. […]

left stellate ganglion = assay: Ambulatory recording of stellate ganglion nerve activity (SGNA); details: carvedilol 12 mg twice daily for a week or ICI infusion 7 days; immediately before drug 209.40
Description: as §1, §2, §3, §4

mongrel dogs = assay: Ambulatory monitoring of blood pressure in dogs (radiotransmitter, Protocol 1); details: for BP response following simultaneous termination of sympathovagal firing and postural change: FIGS. 5A-5I, example dog, baseline drop from 110 mmHg to 80 mmHg; for BP: all eight dogs, random effects model, oral carvedilol 12 mg twice daily for a week, or 7 days of ICI infusion (3.1 μg/kg/hr), baseline 125.60; for percentage of hypotensive episodes (mean systolic pressure <100 mmHg in one min): minute-by-minute data, all dogs, baseline 7.1%
Description: as §1
After 2 weeks of recovery, the radiotransmitter was turned on to record nerve signals and BP at baseline. The pre-implantation BP was calibrated against the ambient pressure in the vivarium. There was a 12-hour daylight cycle in the vivarium staring at 7 AM each day. After the baseline (stellate ganglion nerve activity (SGNA), vagal nerve activity (VNA), and BP) recordings, the dogs were given oral carvedilol, 12 mg twice daily for a week. The drugs were then washed out for a week and baseline recordings were re-collected. […] The pump is designed to empty its contents over 7 days at a rate of 10 μl/hr. Therefore, the infusion rate was 3.1 μg/kg/hr for a 30 kg dog. […] The data collected at days 6-7 of the infusion were used for analyses.
The nerve activities were integrated minute-by-minute. Because BP recordings are prone to motion artifacts, the data of all dogs included in Protocol 1 was manually reviewed and the first 10 noise-free minutes of each hour were selected for analyses. The mean BP was also analyzed minute-by-minute during the same period. The SGNA was plotted against the VNA on an XY graph to visualize the patterns of activation. Pearson correlation coefficients between these two nerve activities were calculated. The data obtained from the manual analyses were subjected to further statistical analyses as described below.
To determine the relationship between BP, heart rate (HR) and ANS activities, 1-minute and 4-hour averages for each dog were calculated on each day of data collection starting at midnight. Pearson correlation coefficients between SGNA and VNA were also calculated within each 4-hour interval. To analyze data from any given individual dog, multiple linear regression with systolic BP as the dependent variable and ANS activities as the independent variables based on 1-minute average data were used. To analyze data from all dogs and the 4-hour average data, a random effects model with dog as the random effect was used with the same dependent and independent variables, plus HR and the Pearson correlation coefficient as additional independent variables. […] A cubic smoothing spline was also used to fit BP versus hour for one dog. Statistical analysis was performed with IBM SPSS Statistics 19 (Armonk, N.Y.) and SAS version 9.3 (SAS Institute Inc., Cary, N.C.).

SMILES | effect on orthostatic symptoms [1] | effect on BP or heart rate (humans) | iVNA (integrated vagal nerve activity) [2] | iSGNA (integrated stellate ganglion nerve activity) (left stellate ganglion) | BP response following simultaneous termination of sympathovagal firing and postural change (mongrel dogs; listed as ICI) | BP (mongrel dogs) | percentage of hypotensive episodes (mean systolic pressure <100 mmHg in one min) (mongrel dogs) | BP response following simultaneous termination of sympathovagal firing and postural change (mongrel dogs)
Cc1ccc(OCC(O)C(C)NC(C)C)c2c1CCC2 (stereo not drawn) [ICI-118,551, 3-(isopropylamino)-1-[(7-methyl-4-indanyl)oxy]butan-2-ol] | had a tendency of improving orthostatic symptoms | does not alter BP or heart rate | 220.18 (95% CI: 156.46 to 283.90) mV-s | 281.23 (95% CI: 230.30 to 332.16) mV-s | no change in BP; also recorded: not followed by hypotension | 133.00 (95% CI: 124.85 to 141.14) mmHg | 1.3% | 
COc1ccccc1OCCNCC(O)COc1cccc2[nH]c3ccccc3c12 (stereo not drawn) [carvedilol] |  |  | 186.68 mV-s | 258.47 (95% CI: 207.20 to 309.75) mV-s |  | 124.8 (95% CI: 116.63 to 132.97) mmHg | 7.8% | drop in BP from 100 mmHg to 80 mmHg; also recorded: followed by hypotension
